Earlier results, collected in US12193458B2, “Sweetening composition and preparation method and use thereof” (HUNAN NUTRAMAX INC., priority 2019, dated 2025).

Conditions: component of Rubus suavissimus S. Lee
For C[C@@H]1CC[C@]2(C(=O)O[C@@H]3O[C@H](CO)[C@@H](O)[C@H](O)[C@H]3O)CC[C@]3(C)C(=CC[C@@H]4[C@@]5(C)C[C@@H](O)[C@H](O)[C@@](C)(CO)[C@@H]5CC[C@]43C)[C@@H]2[C@]1(C)O [Nigaichigoside F1], the taste is given as “bitter taste”. For C[C@@]12CCC[C@@](C)(C(=O)O[C@@H]3O[C@H](CO)[C@@H](O)[C@H](O)[C@H]3O)[C@H]1CC[C@@]13C[C@@H](CC[C@H]12)[C@@](O)(CO)C3 [Paniculoside IV], the taste is listed as “tasteless”. For C=C1C[C@@]23CC[C@H]4[C@@](C)(CCC[C@@]4(C)C(=O)O)[C@@H]2CC[C@]1(O[C@@H]1O[C@H](CO)[C@@H](O)[C@H](O)[C@H]1O)C3 [Steviolmonoside], the taste is listed as “sweet taste”. For CC1(C)C(O)CCC2(C)C3CCC4CC3(CCC12)CC4(O)COC1OC(CO)C(O)C(O)C1O (stereo not shown) [Suavioside A], the taste is given as “sweet taste”. In the case of CC1(C)C(=O)CCC2(C)C3CCC4CC3(CCC12)CC4(O)COC1OC(CO)C(O)C(O)C1O (stereo not shown) [Sugereoside], the taste is given as “bitter taste”. In the case of Suavioside B, the taste is given as “sweet taste”. In the case of Suavioside C1, the taste is given as “bitter taste”. For Suavioside D1, the taste is listed as “tasteless”. For Suavioside D2, the taste is listed as “bitter taste”. For Suavioside E, the taste is given as “tasteless”. In the case of Suavioside F, the taste is listed as “bitter taste”. For Suavioside G, the taste is listed as “sweet taste”. In the case of Suavioside H, the taste is given as “sweet taste”. For Suavioside I, the taste is given as “sweet taste”. In the case of Suavioside J, the taste is listed as “sweet taste”.

Conditions: pH value of 3 to 12, heated, under light irradiation
For C=C1C[C@@]23CC[C@H]4[C@@](C)(CCC[C@@]4(C)C(=O)O[C@@H]4O[C@H](CO)[C@@H](O)[C@H](O)[C@H]4O)[C@@H]2CC[C@]1(O[C@@H]1O[C@H](CO)[C@@H](O)[C@H](O)[C@H]1O)C3 [Rubusoside], the “decomposition when heated in a water solution” value is listed as “will not decompose significantly”.
